Laboratory results reported in ChEMBL document CHEMBL4359916, “Design, synthesis and biological evaluation of 1-benzyl-5-oxopyrrolidine-2-carboximidamide derivatives as novel neuroprotective agents” (Eur J Med Chem, 2019).
Calls of active or inactive are those of the source. The rule behind the calls is not given here.

Assays:
SH-SY5Y [1] = assay: Neuroprotective activity against NMDA-induced cell damage in human SH-SY5Y cells assessed as cell viability at 0.5 uM preincubated for 8 hrs followed by NMDA addition and further incubated for 30 mins and measured after 12 hrs by MTT assay relative to control; format: functional; conditions: read-out: Activity
SH-SY5Y [2] = assay: Neuroprotective activity against NMDA-induced cell damage in human SH-SY5Y cells assessed as cell viability at 0.05 uM preincubated for 8 hrs followed by NMDA addition and further incubated for 30 mins and measured after 12 hrs by MTT assay relative to control; format: functional; conditions: read-out: Activity
SH-SY5Y [3] = assay: Neuroprotective activity against NMDA-induced cell damage in human SH-SY5Y cells assessed as cell viability at 5 uM preincubated for 8 hrs followed by NMDA addition and further incubated for 30 mins and measured after 12 hrs by MTT assay relative to control; format: functional; conditions: read-out: Activity
[4] = target: T1, Glutamate [NMDA] receptor (Homo sapiens) (UniProt Q05586+Q12879+Q13224+O15399+O60391+Q14957+Q8TCU5); assay: Antagonist activity at NMDA receptor in human SH-SY5Y cells assessed as reduction in NMDA-stimulated calcium ion influx at 5 uM measured after 3 hrs by Fluo-3 AM indicator based laser scanning confocal microscopy analysis; format: cell-based
[5] = target: T1, Glutamate [NMDA] receptor (Homo sapiens); assay: Inhibition of NMDA receptor in NMDA-induced human SH-SY5Y cells assessed as increase in phosphorylated ERK1/2 level preincubated for 6 hrs followed by NMDA addition and further incubated for 30 mind and measured after 4 hrs by Western blot analysis; format: cell-based
Mus musculus [6] = assay: Cognitive enhancing effect in C57BL/6 mouse model of bilateral common carotid artery occlusion-induced brain ischemia at 50 mg/kg/day, po via gavage at 24 hrs post surgery after day 17; format: functional, organism-based
SH-SY5Y [7] = assay: Neuroprotective activity in human SH-SY5Y cells assessed as reduction in NMDA-induced NR2B upregulation preincubated for 6 hrs followed by NMDA addition and further incubated for 30 mind and measured after 4 hrs by Western blot analysis; format: functional, cell-based
Mus musculus [8] = assay: (§1) Improvement in spatial memory impairment in C57BL/6 mouse model of bilateral common carotid artery occlusion-induced brain ischemia assessed as decrease in escape latency at 10 to 50 mg/kg/day, po via gavage at 24 hrs post surgery and 1 hr prior to the test measured on day 14 to 17 by Morris water maze test; format: functional, organism-based
[9] = Metabolic stability in human liver microsomes assessed as parent compound remaining at 10 uM measured after 60 mins; format: ADME, Microsome; conditions: read-out: Stability
[10] = Clearance in human liver microsomes at 10 uM preincubated for 10 mins followed by addition of NADPH and measured for 5 to 60 mins; format: ADME, Microsome
Mus musculus [11] = assay: Memory enhancement effect in C57BL/6 mouse model of bilateral common carotid artery occlusion-induced brain ischemia assessed as increase in discrimination index at 50 mg/kg/day, po via gavage 24 hrs post surgery measured on day 9 to 12 after 24 hrs by novel object recognition test; format: functional, organism-based
Mus musculus [12] = assay: Memory enhancement effect in C57BL/6 mouse model of bilateral common carotid artery occlusion-induced brain ischemia assessed as increase in preferential index at 50 mg/kg/day, po via gavage after 24 hrs post surgery measured on day 9 to 12 after 1 hr by novel object recognition test; format: functional, organism-based
Mus musculus [13] = assay: Cognitive enhancing effect in C57BL/6 mouse model of bilateral common carotid artery occlusion-induced brain ischemia assessed as increase in spontaneous alternation behavior at 10 to 50 mg/kg/day, po via gavage at 24 hrs post surgery on day 8 after 1 hr drug administration by Y-maze test; format: functional, organism-based
Mus musculus [14] = assay: Improvement in spatial memory impairment in C57BL/6 mouse model of bilateral common carotid artery occlusion-induced brain ischemia at 50 mg/kg/day, po via gavage at 24 hrs post surgery measured on day 9 to 12 by novel object recognition test; format: functional, organism-based
Mus musculus [15] = assay: as §1, with “increase” for “decrease”, “number of virtual platform crossing” for “escape latency”; format: functional, organism-based
Mus musculus [16] = assay: Improvement in spatial memory impairment in C57BL/6 mouse model of bilateral common carotid artery occlusion-induced brain ischemia at 50 mg/kg/day, po via gavage at 24 hrs post surgery after day 17; format: functional, organism-based
Mus musculus [17] = assay: Improvement in visual recognition effect in C57BL/6 mouse model of bilateral common carotid artery occlusion-induced brain ischemia at 50 mg/kg/day, po via gavage at 24 hrs post surgery measured on day 9 to 12 by novel object recognition test; format: functional, organism-based
[18] = Half-life in human liver microsomes at 10 uM preincubated for 10 mins followed by addition of NADPH and measured for 5 to 60 mins; format: ADME, Microsome
Mus musculus [19] = assay: as §1, with “increase” for “decrease”, “time spent in correct quadrant” for “escape latency”; format: functional, organism-based
Mus musculus [20] = assay: as §1, with “increase” for “decrease”, “swimming distance” for “escape latency”; format: functional, organism-based
Mus musculus [21] = assay: Cognitive enhancing effect in C57BL/6 mouse model of bilateral common carotid artery occlusion-induced brain ischemia assessed as effect on total arm entries at 10 to 50 mg/kg/day, po via gavage at 24 hrs post surgery on day 8 after […] of drug administration by Y-maze test; format: functional, organism-based

| SMILES | viability at 0.5 µM (SH-SY5Y [1]) [%] | viability at 0.05 µM (SH-SY5Y [2]) [%] | viability at 5 µM (SH-SY5Y [3]) [%] | also measured |
| --- | --- | --- | --- | --- |
| COc1ccc(CN2C(=O)CC[C@H]2C(=N)NCc2ccccc2)cc1 | 21 | 12.3 | 17.9 |  |
| N=C(NCc1ccc(O)cc1)[C@@H]1CCC(=O)N1Cc1ccc([N+](=O)[O-])cc1 | 31.3 | 25.9 | 34.5 |  |
| COc1ccc(CNC(=N)[C@@H]2CCC(=O)N2Cc2ccc(C)cc2)cc1 | 21.9 | 19.5 | 29.5 |  |
| N=C(NCc1ccccc1)[C@@H]1CCC(=O)N1Cc1ccccc1 | 27.9 | 16.6 | 20.7 |  |
| N=C(NCc1ccccc1)[C@@H]1CCC(=O)N1Cc1ccccc1[N+](=O)[O-] | 28.8 | 10.1 | 25.3 |  |
| Cc1ccc(CN2C(=O)CC[C@H]2C(=N)NCc2ccccc2)cc1 | 23.5 | 17.1 | 24.8 |  |
| COc1ccc(CN2C(=O)CC[C@H]2C(=N)NCc2ccc(O)cc2)cc1 | 20.5 | 16 | 26.6 |  |
| Cc1ccc(CN2C(=O)CC[C@H]2C(=N)NCc2ccc(O)cc2)cc1 | 21.9 | 20.5 | 23.8 |  |
| COc1ccc(CNC(=N)[C@@H]2CCC(=O)N2Cc2ccc([N+](=O)[O-])cc2)cc1 | 25.4 | 14.3 | 35.2 |  |
| C[C@@H]([C@@H](O)c1ccc(O)cc1)N1CCC(Cc2ccccc2)CC1 [(S)-IFENPRODIL] | 40.4 | 29.4 | 41 | inhibition [4]: Active |
| N=C(NCc1ccc(O)cc1)[C@@H]1CCC(=O)N1Cc1ccccc1[N+](=O)[O-] | 26.9 | 20 | 30.4 |  |
| COc1ccc(CNC(=N)[C@@H]2CCC(=O)N2Cc2ccc(F)cc2)cc1 | 36.7 | 15.8 | 38.1 |  |
| COc1ccc(CNC(=N)[C@@H]2CCC(=O)N2Cc2ccc(OC)cc2)cc1 | 24.8 | 24.2 | 33.6 |  |
| N=C(NCc1ccc(O)cc1)[C@@H]1CCC(=O)N1Cc1ccccc1 | 35.4 | 19.8 | 37.6 |  |
| N=C(NCc1ccccc1)[C@@H]1CCC(=O)N1Cc1ccc(F)cc1 | 23.3 | 13.3 | 31.4 |  |
| COc1ccc(CNC(=N)[C@@H]2CCC(=O)N2Cc2ccccc2[N+](=O)[O-])cc1 | 21.1 | 18.1 | 25.4 |  |
| Cl.N=C(NCc1ccc(O)cc1)[C@@H]1CCC(=O)N1Cc1ccc(F)cc1 | 42 | 35.2 | 48.6 | inhibition [5]: Active; Activity (Mus musculus [6]): Active; Activity (SH-SY5Y [7]): Active; Activity (Mus musculus [8]): Active; remaining at 1 h, 10 µM [9]: 92.7%; CLint [10]: < 9.6 µL/min/mg; Activity (Mus musculus [11]): Active; Activity (Mus musculus [12]): Active; Activity (Mus musculus [13]): Active; Activity (Mus musculus [14]): Active; Activity (Mus musculus [15]): Active; Activity (Mus musculus [16]): Active; Activity (Mus musculus [17]): Active; half-life at 10 µM [18]: > 2.42 h; Activity (Mus musculus [19]): Active; inhibition [4]: Active; Activity (Mus musculus [20]): Active; Activity (Mus musculus [21]): inactive |
| N=C(NCc1ccccc1)[C@@H]1CCC(=O)N1Cc1ccc([N+](=O)[O-])cc1 | 24 | 13.7 | 25.6 |  |
| COc1ccc(CNC(=N)[C@@H]2CCC(=O)N2Cc2ccccc2)cc1 | 23.6 | 7.1 | 19.5 |  |
